# Laboratory results reported in ChEMBL document CHEMBL1201862, “PubChem BioAssay data set” (2004).
# Where “and” joins values, the source holds several entries; their conditions need not be identical. Equal values may be shown once. Calls of active or inactive are those of the source.
# Experiments:
# [1] = A Cell Based Secondary Assay To Explore Cytotoxicity of Compounds that Sensitize Mycobacterium Tuberculosis to Beta-Lactam Antibiotics.; format: functional
# [2] = target: DNA dC->dU-editing enzyme APOBEC-3G (Homo sapiens, UniProt Q9HC16); test: Dose Response confirmation of small molecule APOBEC3G DNA Deaminase Inhibitors via a fluorescence-based single-stranded DNA deaminase assay. [Related pubchem assays (depositor defined):AID493012, AID493028]; format: functional
# [3] = target: T1, Voltage-gated N-type calcium channel alpha-1B subunit/Amyloid beta A4 precursor protein-binding family A member 1 (Homo sapiens, UniProt Q00975+Q02410); format: protein assay
# [4] = target: T1, Voltage-gated N-type calcium channel alpha-1B subunit/Amyloid beta A4 precursor protein-binding family A member 1; format: protein assay; remark: listed apart in the source
# [5] = target: Induced myeloid leukemia cell differentiation protein Mcl-1 (Homo sapiens, UniProt Q07820); format: functional
# [6] = target: T2, Hexokinase HKDC1 (Homo sapiens, UniProt Q2TB90); test: inhibition of HKDC1 glucose phosphorylation – biochemical, W721R variant, dose response (AID 504729); format: functional
# T2 sequence (Q2TB90 whole entry): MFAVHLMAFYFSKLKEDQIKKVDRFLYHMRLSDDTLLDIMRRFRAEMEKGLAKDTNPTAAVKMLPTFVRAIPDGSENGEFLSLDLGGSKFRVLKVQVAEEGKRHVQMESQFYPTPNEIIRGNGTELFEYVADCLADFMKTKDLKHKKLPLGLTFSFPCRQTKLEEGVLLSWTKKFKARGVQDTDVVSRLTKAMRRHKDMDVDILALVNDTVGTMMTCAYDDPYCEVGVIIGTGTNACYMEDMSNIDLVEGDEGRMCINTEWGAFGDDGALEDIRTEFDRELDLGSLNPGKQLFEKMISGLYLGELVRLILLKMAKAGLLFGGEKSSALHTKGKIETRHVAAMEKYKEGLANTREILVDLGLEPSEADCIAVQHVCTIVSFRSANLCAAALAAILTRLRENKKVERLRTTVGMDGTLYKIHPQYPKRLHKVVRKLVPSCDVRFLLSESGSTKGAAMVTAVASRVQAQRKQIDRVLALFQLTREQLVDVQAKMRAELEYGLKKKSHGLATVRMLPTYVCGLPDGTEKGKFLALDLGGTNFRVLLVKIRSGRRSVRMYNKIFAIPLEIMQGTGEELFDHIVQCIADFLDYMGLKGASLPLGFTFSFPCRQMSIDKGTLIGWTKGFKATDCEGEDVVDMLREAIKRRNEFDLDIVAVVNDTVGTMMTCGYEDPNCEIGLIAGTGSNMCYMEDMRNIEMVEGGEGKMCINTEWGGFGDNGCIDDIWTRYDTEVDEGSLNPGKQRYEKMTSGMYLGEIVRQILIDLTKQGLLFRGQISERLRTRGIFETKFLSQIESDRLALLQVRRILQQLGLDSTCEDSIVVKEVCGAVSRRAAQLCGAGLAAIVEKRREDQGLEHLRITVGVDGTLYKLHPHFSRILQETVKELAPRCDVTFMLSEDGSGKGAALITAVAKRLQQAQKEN
# [7] = target: Genome polyprotein (dengue virus type 2, UniProt P29990); test: flavivirus cap methylation enzyme inhibition – biochemical, confirmation dose response, primary screen (AID 588689); format: functional
# [8] = target: T3, Carboxy-terminal domain RNA polymerase II polypeptide A small phosphatase 1 (Homo sapiens, UniProt Q9GZU7); test: CTDSP1 inhibitors, concentration-response, biochemical, absorbance readout, ultra-high-throughput screen actives (AID 540297); format: functional
# T3 sequence (Q9GZU7 whole entry): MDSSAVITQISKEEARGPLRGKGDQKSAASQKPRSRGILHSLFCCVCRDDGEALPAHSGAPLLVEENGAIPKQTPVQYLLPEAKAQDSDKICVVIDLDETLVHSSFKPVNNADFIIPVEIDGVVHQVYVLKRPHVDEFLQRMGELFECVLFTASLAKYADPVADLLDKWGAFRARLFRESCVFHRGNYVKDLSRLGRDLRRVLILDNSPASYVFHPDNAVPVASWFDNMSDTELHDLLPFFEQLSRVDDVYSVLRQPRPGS
# [9] = target: T4, Hexokinase (Trypanosoma brucei, UniProt Q38C41); test: Confirmation assay for inhibitors of Trypanosoma brucei hexokinase 1-Analogue-first series. [Related pubchem assays (depositor defined):AID1430, AID1632, AID2516, AID2560, AID2579, AID2600, AID449725, AID492951]; format: functional
# T4 sequence (Q38C41 whole entry): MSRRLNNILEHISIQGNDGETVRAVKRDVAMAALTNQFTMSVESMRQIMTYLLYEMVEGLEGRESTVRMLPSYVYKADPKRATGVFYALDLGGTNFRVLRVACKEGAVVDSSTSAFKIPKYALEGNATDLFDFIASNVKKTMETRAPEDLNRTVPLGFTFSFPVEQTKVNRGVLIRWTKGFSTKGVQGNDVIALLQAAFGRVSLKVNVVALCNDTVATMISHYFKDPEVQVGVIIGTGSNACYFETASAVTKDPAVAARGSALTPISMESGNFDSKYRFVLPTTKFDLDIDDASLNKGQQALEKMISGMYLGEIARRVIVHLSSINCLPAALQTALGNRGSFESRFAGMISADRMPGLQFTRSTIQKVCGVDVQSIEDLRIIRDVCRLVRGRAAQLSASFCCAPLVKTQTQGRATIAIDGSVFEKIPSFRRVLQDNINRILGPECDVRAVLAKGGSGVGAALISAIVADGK
# [10] = target: Glucose-6-phosphate 1-dehydrogenase (Homo sapiens, UniProt P11413); test: inhibition of Homo sapiens G6PD, dose series – biochemical, fluorescence, selectivity assay for P. falciparum G6PD inhibitor project, dose response (AID 504792); format: functional
# [11] = target: T5, Coagulation factor XII (Homo sapiens, UniProt P00748); format: functional;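 note: activated factor XIIa alpha cleaving a fluorogenic AMC peptide substrate; inhibitor potency from loss of enzyme activity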
# T5 sequence (P00748 whole entry): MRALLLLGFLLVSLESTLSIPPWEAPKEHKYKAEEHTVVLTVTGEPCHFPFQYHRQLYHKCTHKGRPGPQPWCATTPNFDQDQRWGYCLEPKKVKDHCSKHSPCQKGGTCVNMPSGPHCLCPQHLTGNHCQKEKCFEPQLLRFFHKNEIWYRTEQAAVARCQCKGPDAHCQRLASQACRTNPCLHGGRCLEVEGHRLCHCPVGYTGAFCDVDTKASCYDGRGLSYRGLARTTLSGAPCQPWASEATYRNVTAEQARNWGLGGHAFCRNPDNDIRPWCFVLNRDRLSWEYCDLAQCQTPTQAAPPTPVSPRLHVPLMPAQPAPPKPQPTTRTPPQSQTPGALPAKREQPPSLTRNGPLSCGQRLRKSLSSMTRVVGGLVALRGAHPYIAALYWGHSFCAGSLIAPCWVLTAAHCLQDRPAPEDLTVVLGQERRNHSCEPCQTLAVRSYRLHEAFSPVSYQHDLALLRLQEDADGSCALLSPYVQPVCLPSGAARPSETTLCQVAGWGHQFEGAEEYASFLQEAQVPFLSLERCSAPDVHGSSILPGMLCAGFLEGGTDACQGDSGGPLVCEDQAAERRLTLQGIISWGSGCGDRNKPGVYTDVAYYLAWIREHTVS
# [12] = A cytotoxicity screen of small molecule inhibitors of the PhoP region in Salmonella typhi identified in the primary screen. [Related pubchem assays: 1850, 1864, 1985 ]; format: functional
# [13] = target: T6, Aspartyl aminopeptidase (Plasmodium falciparum 3D7, UniProt Q8I2J3)
# T6 sequence (Q8I2J3 whole entry): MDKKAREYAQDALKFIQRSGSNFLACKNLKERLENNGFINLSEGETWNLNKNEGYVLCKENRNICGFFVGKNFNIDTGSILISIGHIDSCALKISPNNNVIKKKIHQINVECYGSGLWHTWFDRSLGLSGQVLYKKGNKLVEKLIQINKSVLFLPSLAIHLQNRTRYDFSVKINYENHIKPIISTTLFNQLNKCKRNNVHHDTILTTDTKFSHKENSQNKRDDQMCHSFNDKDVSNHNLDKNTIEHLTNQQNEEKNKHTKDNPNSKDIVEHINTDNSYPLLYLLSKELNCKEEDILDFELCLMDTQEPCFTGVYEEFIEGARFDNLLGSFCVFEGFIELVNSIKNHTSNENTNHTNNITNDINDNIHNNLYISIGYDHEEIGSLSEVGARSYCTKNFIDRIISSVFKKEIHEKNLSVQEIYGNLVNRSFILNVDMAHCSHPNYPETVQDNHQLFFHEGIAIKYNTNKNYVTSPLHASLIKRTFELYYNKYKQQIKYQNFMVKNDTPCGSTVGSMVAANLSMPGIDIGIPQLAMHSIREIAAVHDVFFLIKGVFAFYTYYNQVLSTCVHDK
# [14] = target: Procathepsin L (Homo sapiens, UniProt P07711)
# [15] = target: Large T antigen (Simian virus 40, UniProt P03070); format: functional, Betapolyomavirus macacae;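 note: Confirmatory-stage PubChem screen for compounds that inhibit SV40 T antigen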
# [16] = Luminescence Cell-Based Dose Confirmation HTS to Identify Inhibitors of Polyadenylation.; format: functional
# [17] = target: FAD-linked sulfhydryl oxidase ALR (Homo sapiens, UniProt P55789); test: ALR-catalysed DTT oxidation blockers – biochemical, H2O2 detection, luminescence, cherry-pick, dose response (AID 493248)
# [18] = tested on: Streptococcus sp. 'group A'; test: Streptococcus pyogenes SK(-)GAS viability under kanamycin – luminescence, BacTiterGlo, confirmation, counter-screen for streptokinase expression inhibitor project, dose response (AID 1900); format: functional, organism-based
# [19] = target: T7, Streptokinase A (Streptococcus pyogenes serotype M1, UniProt P10520); test: viability-normalized secreted streptokinase activity reduction – plasminogen activation absorbance, OD405, dose response (AID 1914); format: functional, Streptococcus pyogenes M1 GAS;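 note: secreted streptokinase activity via plasminogen activation per viability signal from cell pellet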
# T7 sequence (P10520 whole entry): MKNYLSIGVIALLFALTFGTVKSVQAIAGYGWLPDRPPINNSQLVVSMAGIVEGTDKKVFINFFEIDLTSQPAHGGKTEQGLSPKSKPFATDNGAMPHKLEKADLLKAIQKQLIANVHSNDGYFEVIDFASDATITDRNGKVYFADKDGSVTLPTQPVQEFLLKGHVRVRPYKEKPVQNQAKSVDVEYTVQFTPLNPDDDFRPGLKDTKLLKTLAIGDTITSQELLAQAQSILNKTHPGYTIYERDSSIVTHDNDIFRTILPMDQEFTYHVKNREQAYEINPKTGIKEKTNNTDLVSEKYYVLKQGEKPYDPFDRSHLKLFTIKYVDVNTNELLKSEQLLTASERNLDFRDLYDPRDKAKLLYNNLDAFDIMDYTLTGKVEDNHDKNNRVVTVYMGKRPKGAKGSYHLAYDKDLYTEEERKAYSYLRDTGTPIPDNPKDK
# [20] = Trypanosoma cruzi growth suppression in host cells – NIH3T3 host cells, beta-gal luminescence, confirmation (AID 2044); format: functional, cell-based;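 note: intracellular parasites grown in NIH/3T3 mouse fibroblasts as host cells; luminescent beta-galactosidase reporter signal from transgenic T. cruzi replicating inside host cells; inhibitors lower the luminescence signal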
# [21] = NIH3T3 cell viability loss – ATP luminescence, mouse fibroblasts, counter-screen, dose response (AID 2010); format: functional, cell-based;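 note: cells exposed to compound for about 90 hours before reading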
# [22] = tested on: Streptococcus; test: GAS UMAA2166 growth inhibition – luminescence, BacTiterGlo, counter-screen for streptokinase expression inhibitor project, dose response (AID 1915); format: functional, organism-based;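 note: potency for reduction of bacterial viability or growth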
# [23] = THP-1 cell cytotoxicity, dose response, cytotoxicity control for non-replicating M. tuberculosis project (AID 489025); format: functional
# [24] = HepG2 cell cytotoxicity, dose response, cytotoxicity control for non-replicating M. tuberculosis project (AID 489018); format: functional; settings: Mycobacterium tuberculosis
# [25] = Vero E6 cell cytotoxicity, dose response, cytotoxicity control for non-replicating M. tuberculosis project, secondary assay (AID 492998); format: functional, VeroE6; settings: Vero C1008
# [26] = cells; format: functional
# [27] = tested on: INS1; test: INS-1E survival protection against cytokine death – cell-based, luminescence, retest, dose response (AID 449756); format: functional; settings: Rattus norvegicus, INS1;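 note: cell death triggered by IL-1 beta plus TNF-alpha plus IFN-gamma mixture; protective hits raise ATP signal compared with cytokine alone wells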
# Chain of DNA dC->dU-editing enzyme APOBEC-3G (Q9HC16 whole entry): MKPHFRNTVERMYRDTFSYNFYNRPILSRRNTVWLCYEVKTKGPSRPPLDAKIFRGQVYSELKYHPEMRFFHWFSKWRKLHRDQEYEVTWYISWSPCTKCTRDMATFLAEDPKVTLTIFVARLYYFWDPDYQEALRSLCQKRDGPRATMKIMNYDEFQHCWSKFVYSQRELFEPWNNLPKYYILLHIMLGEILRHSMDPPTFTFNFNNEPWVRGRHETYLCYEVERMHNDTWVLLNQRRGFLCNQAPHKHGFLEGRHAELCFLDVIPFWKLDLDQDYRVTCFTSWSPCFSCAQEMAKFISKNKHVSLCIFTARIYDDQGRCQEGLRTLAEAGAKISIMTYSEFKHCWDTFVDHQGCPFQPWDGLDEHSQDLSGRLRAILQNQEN
# Chain of Induced myeloid leukemia cell differentiation protein Mcl-1 (Q07820 whole entry): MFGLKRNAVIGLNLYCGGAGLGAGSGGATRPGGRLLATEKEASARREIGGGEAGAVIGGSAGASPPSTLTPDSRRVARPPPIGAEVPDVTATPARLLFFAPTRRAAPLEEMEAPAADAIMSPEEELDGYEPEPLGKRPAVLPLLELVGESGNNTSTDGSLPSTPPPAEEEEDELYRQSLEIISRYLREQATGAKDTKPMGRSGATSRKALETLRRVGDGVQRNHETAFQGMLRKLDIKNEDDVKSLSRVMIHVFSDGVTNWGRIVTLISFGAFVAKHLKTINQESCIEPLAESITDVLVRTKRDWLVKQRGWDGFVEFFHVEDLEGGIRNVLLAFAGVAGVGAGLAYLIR
# T1 sequence (Q00975 whole entry): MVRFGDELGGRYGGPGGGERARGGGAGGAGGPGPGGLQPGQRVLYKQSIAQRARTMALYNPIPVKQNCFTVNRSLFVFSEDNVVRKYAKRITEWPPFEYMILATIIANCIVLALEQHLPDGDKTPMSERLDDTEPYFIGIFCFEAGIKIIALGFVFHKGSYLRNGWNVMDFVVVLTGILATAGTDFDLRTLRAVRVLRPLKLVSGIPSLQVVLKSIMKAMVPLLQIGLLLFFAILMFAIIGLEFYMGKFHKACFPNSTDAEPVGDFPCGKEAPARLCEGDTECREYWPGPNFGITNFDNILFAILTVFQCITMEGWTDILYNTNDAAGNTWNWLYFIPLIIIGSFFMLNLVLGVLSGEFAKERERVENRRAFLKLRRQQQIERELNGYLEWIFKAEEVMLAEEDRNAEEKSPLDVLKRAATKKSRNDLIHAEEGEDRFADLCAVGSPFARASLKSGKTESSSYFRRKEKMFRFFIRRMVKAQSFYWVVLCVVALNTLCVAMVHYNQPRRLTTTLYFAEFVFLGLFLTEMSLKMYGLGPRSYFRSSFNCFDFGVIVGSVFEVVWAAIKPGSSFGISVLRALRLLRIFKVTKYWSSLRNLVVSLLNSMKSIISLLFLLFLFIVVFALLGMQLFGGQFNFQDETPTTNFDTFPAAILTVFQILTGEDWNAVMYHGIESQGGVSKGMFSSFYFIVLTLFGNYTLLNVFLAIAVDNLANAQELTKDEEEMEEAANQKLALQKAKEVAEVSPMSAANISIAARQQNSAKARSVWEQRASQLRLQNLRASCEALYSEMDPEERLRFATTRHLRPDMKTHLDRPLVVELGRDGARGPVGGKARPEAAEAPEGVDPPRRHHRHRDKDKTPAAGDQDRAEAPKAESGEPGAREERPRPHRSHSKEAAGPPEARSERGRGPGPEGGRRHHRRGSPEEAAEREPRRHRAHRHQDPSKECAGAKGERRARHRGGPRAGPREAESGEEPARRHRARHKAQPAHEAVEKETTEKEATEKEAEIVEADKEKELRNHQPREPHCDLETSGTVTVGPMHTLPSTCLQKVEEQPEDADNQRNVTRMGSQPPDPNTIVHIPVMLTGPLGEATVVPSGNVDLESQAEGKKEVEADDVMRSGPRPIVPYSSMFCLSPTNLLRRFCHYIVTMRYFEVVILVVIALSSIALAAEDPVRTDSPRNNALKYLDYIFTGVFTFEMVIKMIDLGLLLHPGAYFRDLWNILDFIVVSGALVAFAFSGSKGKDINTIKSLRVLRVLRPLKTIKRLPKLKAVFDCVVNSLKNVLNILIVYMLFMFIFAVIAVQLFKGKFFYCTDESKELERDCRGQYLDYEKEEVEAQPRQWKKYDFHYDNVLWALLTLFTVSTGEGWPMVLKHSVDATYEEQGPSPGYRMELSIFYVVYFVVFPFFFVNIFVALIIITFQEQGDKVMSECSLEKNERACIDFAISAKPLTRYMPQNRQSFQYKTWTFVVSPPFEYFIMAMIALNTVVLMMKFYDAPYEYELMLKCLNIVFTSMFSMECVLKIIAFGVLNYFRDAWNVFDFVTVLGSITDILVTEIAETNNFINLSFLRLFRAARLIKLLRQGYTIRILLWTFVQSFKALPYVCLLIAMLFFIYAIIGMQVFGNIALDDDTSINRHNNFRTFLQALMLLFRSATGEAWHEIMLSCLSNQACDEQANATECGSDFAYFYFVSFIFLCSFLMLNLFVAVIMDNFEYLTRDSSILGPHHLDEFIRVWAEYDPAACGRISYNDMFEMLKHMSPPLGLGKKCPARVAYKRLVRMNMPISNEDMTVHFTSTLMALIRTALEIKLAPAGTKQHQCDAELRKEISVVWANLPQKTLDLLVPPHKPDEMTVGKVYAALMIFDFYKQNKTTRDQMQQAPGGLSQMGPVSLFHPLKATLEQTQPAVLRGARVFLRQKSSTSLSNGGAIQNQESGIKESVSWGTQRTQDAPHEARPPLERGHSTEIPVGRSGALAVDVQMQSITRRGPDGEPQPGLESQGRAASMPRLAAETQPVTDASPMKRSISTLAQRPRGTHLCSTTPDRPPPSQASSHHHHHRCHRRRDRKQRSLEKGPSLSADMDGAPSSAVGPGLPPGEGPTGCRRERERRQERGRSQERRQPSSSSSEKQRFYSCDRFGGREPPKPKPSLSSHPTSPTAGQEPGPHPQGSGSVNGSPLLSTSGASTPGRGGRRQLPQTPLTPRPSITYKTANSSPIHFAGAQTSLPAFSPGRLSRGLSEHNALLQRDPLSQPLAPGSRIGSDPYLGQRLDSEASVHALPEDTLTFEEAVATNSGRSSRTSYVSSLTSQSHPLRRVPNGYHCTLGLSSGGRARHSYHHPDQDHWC
# T1 sequence (Q02410 whole entry): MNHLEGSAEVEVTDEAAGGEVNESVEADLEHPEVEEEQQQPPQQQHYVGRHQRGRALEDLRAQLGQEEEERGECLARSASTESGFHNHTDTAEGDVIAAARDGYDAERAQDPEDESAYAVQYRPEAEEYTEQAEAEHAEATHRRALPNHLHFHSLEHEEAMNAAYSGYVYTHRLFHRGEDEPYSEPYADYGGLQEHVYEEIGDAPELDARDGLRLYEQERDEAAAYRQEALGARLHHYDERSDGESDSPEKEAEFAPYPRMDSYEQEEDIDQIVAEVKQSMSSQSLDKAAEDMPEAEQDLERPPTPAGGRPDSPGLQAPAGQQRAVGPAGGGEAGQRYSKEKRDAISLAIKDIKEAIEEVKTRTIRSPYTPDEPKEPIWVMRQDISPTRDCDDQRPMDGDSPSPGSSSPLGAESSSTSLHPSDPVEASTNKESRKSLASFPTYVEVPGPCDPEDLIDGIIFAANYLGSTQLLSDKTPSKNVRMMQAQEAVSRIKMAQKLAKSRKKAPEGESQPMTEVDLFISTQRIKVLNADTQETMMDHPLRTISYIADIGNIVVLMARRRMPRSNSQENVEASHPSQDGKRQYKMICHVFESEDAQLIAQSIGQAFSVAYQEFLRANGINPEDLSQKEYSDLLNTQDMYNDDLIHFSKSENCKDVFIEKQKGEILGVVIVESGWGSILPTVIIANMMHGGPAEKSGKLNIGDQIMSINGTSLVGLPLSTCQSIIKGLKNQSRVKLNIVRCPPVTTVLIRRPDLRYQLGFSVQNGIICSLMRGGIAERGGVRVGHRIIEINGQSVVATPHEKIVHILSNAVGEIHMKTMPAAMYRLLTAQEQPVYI
# Chain of Glucose-6-phosphate 1-dehydrogenase (P11413 whole entry): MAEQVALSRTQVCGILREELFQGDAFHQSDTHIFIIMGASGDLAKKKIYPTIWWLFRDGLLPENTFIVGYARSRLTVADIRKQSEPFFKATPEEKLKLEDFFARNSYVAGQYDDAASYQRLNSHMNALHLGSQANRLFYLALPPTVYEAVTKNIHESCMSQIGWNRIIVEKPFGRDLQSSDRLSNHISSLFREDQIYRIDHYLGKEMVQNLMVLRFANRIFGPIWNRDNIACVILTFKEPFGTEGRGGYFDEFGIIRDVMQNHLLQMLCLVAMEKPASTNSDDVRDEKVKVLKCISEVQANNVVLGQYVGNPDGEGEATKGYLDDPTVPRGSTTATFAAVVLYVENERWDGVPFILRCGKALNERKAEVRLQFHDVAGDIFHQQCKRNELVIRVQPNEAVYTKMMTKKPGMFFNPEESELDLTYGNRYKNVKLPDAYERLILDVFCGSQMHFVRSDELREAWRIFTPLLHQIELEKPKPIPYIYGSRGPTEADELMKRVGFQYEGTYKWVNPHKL
# Chain of FAD-linked sulfhydryl oxidase ALR (P55789 whole entry): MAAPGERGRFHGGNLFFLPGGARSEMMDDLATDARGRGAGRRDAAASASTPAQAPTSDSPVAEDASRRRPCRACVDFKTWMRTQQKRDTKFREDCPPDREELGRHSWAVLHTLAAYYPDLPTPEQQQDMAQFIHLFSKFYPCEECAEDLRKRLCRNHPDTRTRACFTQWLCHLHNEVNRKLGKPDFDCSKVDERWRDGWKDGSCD
# Chain of Procathepsin L (P07711 whole entry): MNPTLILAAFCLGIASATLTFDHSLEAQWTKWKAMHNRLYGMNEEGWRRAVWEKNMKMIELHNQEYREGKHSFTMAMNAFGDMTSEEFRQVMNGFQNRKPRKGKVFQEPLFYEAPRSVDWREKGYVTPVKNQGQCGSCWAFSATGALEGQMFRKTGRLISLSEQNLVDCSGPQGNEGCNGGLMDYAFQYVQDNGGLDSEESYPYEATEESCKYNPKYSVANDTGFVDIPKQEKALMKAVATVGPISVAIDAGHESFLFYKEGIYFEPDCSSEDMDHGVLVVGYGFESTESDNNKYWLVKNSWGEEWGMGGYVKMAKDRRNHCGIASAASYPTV
smiles,measurement,setting,value
COc1ccc([N+](=O)[O-])cc1C1NN=C(c2ccccc2O)S1 (configuration not stated),CC50,[1],> 40 µM (active)
S=C(c1ccc(-c2ccccc2Cl)o1)N1CCOCC1,IC50,[2],44.6 µM (active)
CCC1=NN2C(=N)/C(=C\c3ccc(OCc4cc(=O)n5nc(CC)sc5n4)c(OC)c3)C(=O)N=C2S1,IC50,[3],> 56.8 µM (not active)
same,IC50,[4],> 50 µM (inactive)
same,IC50,[5],2.95 µM (active)
same,IC50,[6],41.1 µM (inactive)
same,IC50,[7],61.9 µM (active)
same,IC50,[8],5.99 µM (active)
COc1ccc(C(=O)Nc2cc(Cl)ccc2C(=O)O)cc1,IC50,[9],11.2 µM (active) and 8.23 µM (active)
same,IC50,[10],> 80 µM (inactive)
O=C(O)c1ccc(NCc2nc3ccccc3n2Cc2ccccc2)cc1,IC50,[11],> 50 µM (inactive)
O=[N+]([O-])c1cc([N+](=O)[O-])c2cccnc2c1Oc1ccccc1O,EC50,[12],> 50 µM (active)
same,IC50,[13],3.27 µM (active)
same,IC50,[14],> 59.6 µM (not active)
same,IC50,[15],7.81 µM (active)
same,IC50,[5],2.82 µM (active)
O=C(NNC(=S)NC1CC2C=CC1C2)c1cccnc1 (configuration not stated),EC50,[16],> 120 µM (not active)
C=CCn1c(S)nnc1-c1cccc([N+](=O)[O-])c1,IC50,[2],8.72 µM (active)
same,AC50,[17],9.06 µM (active)
O=C1CC(c2ccc(Cl)cc2)N2CCNC2=C1C(=O)Nc1ccccc1 (configuration not stated),EC50,[12],> 50 µM (active)
CCN1CCN(C(=O)c2cc3cc(Cl)ccc3[nH]2)CC1,EC50,[12],> 50 µM (active)
COCCCN=C(S)NN=C(S)Nc1ccccc1,IC50,[2],16.4 µM (active)
CC(NC(=O)c1ccc(Br)cc1)c1ccccc1 (configuration not stated),EC50,[16],> 120 µM (not active)
CCN(c1ccccc1)S(=O)(=O)c1ccc(C(=O)Nc2nnc(COC)o2)cc1,IC50,[11],> 50 µM (inactive)
O=C(COC(=O)Cc1ccc(S(=O)(=O)N2CCOCC2)s1)Nc1ccc2c(c1)OCO2,EC50,[16],> 120 µM (not active)
Cc1ccc(OCC(=O)Nc2ccc3c4c(cccc24)CC3)c(C)c1,CC50,[1],> 40 µM (active)
O=C(Nc1cc(Cl)ccc1C(=O)O)c1ccc2c(c1)CCC2,IC50,[9],4.83 µM (active)
CC(C)(C)c1cc(C(=O)N/N=C/c2ccc([N+](=O)[O-])s2)[nH]n1,EC50,[18],12.3 µM (active)
same,EC50,[19],> 150 µM (not active)
same,EC50,[20],0.15 µM (active)
same,EC50,[21],> 60 µM (not active)
same,EC50,[22],15.8 µM (active)
same,CC50,[23],18.9 µM (active)
same,CC50,[24],> 20 µM (active)
same,CC50,[25],12 µM (active)
same,IC50,[26],5.22 µM (active)
same,AC50,[27],6.87 µM (active)
